Starred links: 1 amine or outer side, 2 acyl side, 3 side chain; linkers in the order of their positions; H or OH if unused. Non-standard residues stand in square brackets, D forms with d. Residues, ends and D or L forms follow the SMILES beside them. Groups on a side chain read outwards from the residue. *: point of attachment. Dip = N[C@H](C(=O)O)C(c1ccccc1)c1ccccc1; γGlu = O=C(O)[C@H](CCC(=O)[*:2])N[*:1]; Stearoyl = CCCCCCCCCCCCCCCCCC(=O)*; Palmitoyl = CCCCCCCCCCCCCCCC(=O)*; αMeF = C[C@](N)(Cc1ccccc1)C(=O)O; PEG4 = NCCOCCOCCOCCOCCC(=O)O; PEG2 = NCCOCCOCCC(=O)O; Aib = CC(C)(N)C(=O)O
Experiments:
[1] = target: human GLP-1 receptor (hGLP-1R) (Homo sapiens, UniProt P43220); assay: cAMP production (HTRF) in CHO cells expressing hGLP-1R; assay type: cell-based; design: expressed in transfected cells; settings: for EC50: Table 6, peptides modified at position 17, cAMP in CHO hGLP-1R cells, geometric mean, read-out: hGLP-1R EC50; for % Relative Potency Ratio: Table 6, % GLP-1R activity relative to GLP-1 / % GlucR activity relative to glucagon
How it was run: (§1)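 Read-out: HTRF cAMP (anti-cAMP cryptate donor, cAMP-d2 acceptor in conjugate/lysis buffer), converted to % Delta F and fitted by 4-parameter logistic for EC50. Cell densities were 1×10^5 cells/mL (hGLP-1R) or 2×10^5 cells/mL (hGCGR). Stimulation lasted 30 min at room temperature.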

[2] = target: human glucagon receptor (hGCGR) (Homo sapiens, UniProt P47871); assay: cAMP production (HTRF) in CHO cells expressing hGCGR; assay type: cell-based; design: expressed in transfected cells; settings: Table 6, peptides modified at position 17; cAMP in CHO hGCGR cells; geometric mean; read-out: hGluc-R EC50
How it was run: as §1

Sequence of human GLP-1 receptor (hGLP-1R) (P43220 24-463): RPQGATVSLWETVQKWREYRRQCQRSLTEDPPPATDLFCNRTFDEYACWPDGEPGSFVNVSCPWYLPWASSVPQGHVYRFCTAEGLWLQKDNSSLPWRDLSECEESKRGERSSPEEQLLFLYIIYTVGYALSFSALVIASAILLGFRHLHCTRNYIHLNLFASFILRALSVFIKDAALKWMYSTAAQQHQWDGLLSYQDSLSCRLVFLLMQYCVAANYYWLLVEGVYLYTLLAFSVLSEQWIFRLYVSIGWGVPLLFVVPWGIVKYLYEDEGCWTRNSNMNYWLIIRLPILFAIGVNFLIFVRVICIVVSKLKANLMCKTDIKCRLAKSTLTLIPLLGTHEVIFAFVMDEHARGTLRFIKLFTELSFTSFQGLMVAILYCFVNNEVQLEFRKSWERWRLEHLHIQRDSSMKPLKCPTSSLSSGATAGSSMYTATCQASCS
Sequence of human glucagon receptor (hGCGR) (P47871 26-477): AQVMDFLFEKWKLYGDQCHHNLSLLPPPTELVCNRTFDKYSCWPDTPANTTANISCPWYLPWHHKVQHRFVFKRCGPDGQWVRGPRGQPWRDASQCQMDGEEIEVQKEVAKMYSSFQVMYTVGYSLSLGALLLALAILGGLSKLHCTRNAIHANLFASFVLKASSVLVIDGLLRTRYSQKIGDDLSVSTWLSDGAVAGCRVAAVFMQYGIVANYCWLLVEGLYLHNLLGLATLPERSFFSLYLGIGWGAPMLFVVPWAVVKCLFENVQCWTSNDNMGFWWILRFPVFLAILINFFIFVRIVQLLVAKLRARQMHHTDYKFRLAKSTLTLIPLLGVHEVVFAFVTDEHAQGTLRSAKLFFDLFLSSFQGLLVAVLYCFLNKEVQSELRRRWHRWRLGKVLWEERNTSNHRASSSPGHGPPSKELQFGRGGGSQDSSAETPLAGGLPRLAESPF

EC50 [1] [pM]	% Relative Potency Ratio [1]	EC50 [2] [pM]	Structure (SMILES)
5.16	8.1	21.1	CCCCCCCCCCCCCCCCCC(=O)NCCOCCOCCC(=O)N[C@@H](CCC(=O)NCCOCCOCCC(=O)N[C@@H](CCC(=O)NCCCC[C@H](NC(=O)[C@H](CO)NC(=O)[C@H](CC(=O)O)NC(=O)[C@H](CC(C)C)NC(=O)[C@@H](NC(=O)[C@H](CCCCN)NC(=O)[C@H](CO)NC(=O)[C@@H](NC(=O)[C@H](CC(=O)O)NC(=O)[C@H](CO)NC(=O)[C@@H](NC(=O)[C@](C)(Cc1ccccc1)NC(=O)[C@H](CO)NC(=O)CNC(=O)[C@H](CCC(N)=O)NC(=O)[C@H](CO)NC(=O)[C@@H](N)Cc1c[nH]cn1)[C@@H](C)O)C(C)C)C(c1ccccc1)c1ccccc1)C(=O)N[C@@H](C)C(=O)N[C@@H](C)C(=O)N[C@@H](CCC(N)=O)C(=O)N[C@@H](CC(=O)O)C(=O)N[C@@](C)(Cc1ccccc1)C(=O)N[C@H](C(=O)N[C@@H](CCC(=O)O)C(=O)NC(C)(C)C(=O)N[C@H](C(=O)N[C@H](C(=O)N[C@@H](CC(N)=O)C(=O)N[C@H](C(N)=O)[C@@H](C)O)[C@@H](C)CC)[C@@H](C)CC)C(C)C)C(=O)O)C(=O)O [Peptide 60] (H-HSQGS[αMeF]TSDVSK[Dip]LDSK([γGlu-PEG2-γGlu-PEG2-Stearoyl])AAQD[αMeF]VE[Aib]IINT-NH2; N-terminus assumed)
4.12	4.6	9.55	CCCCCCCCCCCCCCCCCC(=O)N[C@@H](CCC(=O)NCCOCCOCCC(=O)N[C@@H](CCC(=O)NCCOCCOCCC(=O)NCCCC[C@H](NC(=O)[C@H](CO)NC(=O)[C@H](CC(=O)O)NC(=O)[C@H](CC(C)C)NC(=O)[C@@H](NC(=O)[C@H](CCCCN)NC(=O)[C@H](CO)NC(=O)[C@@H](NC(=O)[C@H](CC(=O)O)NC(=O)[C@H](CO)NC(=O)[C@@H](NC(=O)[C@](C)(Cc1ccccc1)NC(=O)[C@H](CO)NC(=O)CNC(=O)[C@H](CCC(N)=O)NC(=O)[C@H](CO)NC(=O)[C@@H](N)Cc1c[nH]cn1)[C@@H](C)O)C(C)C)C(c1ccccc1)c1ccccc1)C(=O)N[C@@H](C)C(=O)N[C@@H](C)C(=O)N[C@@H](CCC(N)=O)C(=O)N[C@@H](CC(=O)O)C(=O)N[C@@](C)(Cc1ccccc1)C(=O)N[C@H](C(=O)N[C@@H](CCC(=O)O)C(=O)NC(C)(C)C(=O)N[C@H](C(=O)N[C@H](C(=O)N[C@@H](CC(N)=O)C(=O)N[C@H](C(N)=O)[C@@H](C)O)[C@@H](C)CC)[C@@H](C)CC)C(C)C)C(=O)O)C(=O)O [Peptide 61] (H-HSQGS[αMeF]TSDVSK[Dip]LDSK([PEG2-γGlu-PEG2-γGlu-Stearoyl])AAQD[αMeF]VE[Aib]IINT-NH2; N-terminus assumed)
2.57	2.4	3.06	CCCCCCCCCCCCCCCC(=O)N[C@@H](CCC(=O)N[C@@H](CCC(=O)NCCOCCOCCC(=O)NCCOCCOCCC(=O)NCCCC[C@H](NC(=O)[C@H](CO)NC(=O)[C@H](CC(=O)O)NC(=O)[C@H](CC(C)C)NC(=O)[C@@H](NC(=O)[C@H](CCCCN)NC(=O)[C@H](CO)NC(=O)[C@@H](NC(=O)[C@H](CC(=O)O)NC(=O)[C@H](CO)NC(=O)[C@@H](NC(=O)[C@](C)(Cc1ccccc1)NC(=O)[C@H](CO)NC(=O)CNC(=O)[C@H](CCC(N)=O)NC(=O)[C@H](CO)NC(=O)[C@@H](N)Cc1c[nH]cn1)[C@@H](C)O)C(C)C)C(c1ccccc1)c1ccccc1)C(=O)N[C@@H](C)C(=O)N[C@@H](C)C(=O)N[C@@H](CCC(N)=O)C(=O)N[C@@H](CC(=O)O)C(=O)N[C@@](C)(Cc1ccccc1)C(=O)N[C@H](C(=O)N[C@@H](CCC(=O)O)C(=O)NC(C)(C)C(=O)N[C@H](C(=O)N[C@H](C(=O)N[C@@H](CC(N)=O)C(=O)N[C@H](C(N)=O)[C@@H](C)O)[C@@H](C)CC)[C@@H](C)CC)C(C)C)C(=O)O)C(=O)O [Peptide 64] (H-HSQGS[αMeF]TSDVSK[Dip]LDSK([PEG2-PEG2-γGlu-γGlu-Palmitoyl])AAQD[αMeF]VE[Aib]IINT-NH2; N-terminus assumed)
1.52	8.3	6.43	CCCCCCCCCCCCCCCCCC(=O)N[C@@H](CCC(=O)N[C@@H](CCC(=O)NCCOCCOCCC(=O)NCCOCCOCCC(=O)NCCCC[C@H](NC(=O)[C@H](CO)NC(=O)[C@H](CC(=O)O)NC(=O)[C@H](CC(C)C)NC(=O)[C@@H](NC(=O)[C@H](CCCCN)NC(=O)[C@H](CO)NC(=O)[C@@H](NC(=O)[C@H](CC(=O)O)NC(=O)[C@H](CO)NC(=O)[C@@H](NC(=O)[C@](C)(Cc1ccccc1)NC(=O)[C@H](CO)NC(=O)CNC(=O)[C@H](CCC(N)=O)NC(=O)C(C)(C)NC(=O)[C@@H](N)Cc1c[nH]cn1)[C@@H](C)O)C(C)C)C(c1ccccc1)c1ccccc1)C(=O)N[C@@H](C)C(=O)N[C@@H](C)C(=O)N[C@@H](CCC(N)=O)C(=O)N[C@@H](CC(=O)O)C(=O)N[C@@](C)(Cc1ccccc1)C(=O)N[C@H](C(=O)N[C@@H](CCC(N)=O)C(=O)NC(C)(C)C(=O)N[C@H](C(=O)N[C@@H](C)C(=O)N[C@@H](CC(N)=O)C(N)=O)[C@@H](C)CC)C(C)C)C(=O)O)C(=O)O [Peptide 66] (H-H[Aib]QGS[αMeF]TSDVSK[Dip]LDSK([PEG2-PEG2-γGlu-γGlu-Stearoyl])AAQD[αMeF]VQ[Aib]IAN-NH2; N-terminus assumed)
2.43	7.7	9.49	CCCCCCCCCCCCCCCC(=O)N[C@@H](CCC(=O)NCCOCCOCCC(=O)NCCOCCOCCC(=O)NCCCC[C@H](NC(=O)[C@H](CO)NC(=O)[C@H](CC(=O)O)NC(=O)[C@H](CC(C)C)NC(=O)[C@@H](NC(=O)[C@H](CCCCN)NC(=O)[C@H](CO)NC(=O)[C@@H](NC(=O)[C@H](CC(=O)O)NC(=O)[C@H](CO)NC(=O)[C@@H](NC(=O)[C@](C)(Cc1ccccc1)NC(=O)[C@H](CO)NC(=O)CNC(=O)[C@H](CCC(N)=O)NC(=O)C(C)(C)NC(=O)[C@@H](N)Cc1c[nH]cn1)[C@@H](C)O)C(C)C)C(c1ccccc1)c1ccccc1)C(=O)N[C@@H](C)C(=O)N[C@@H](C)C(=O)N[C@@H](CCC(N)=O)C(=O)N[C@@H](CC(=O)O)C(=O)N[C@@](C)(Cc1ccccc1)C(=O)N[C@H](C(=O)N[C@@H](CCC(N)=O)C(=O)NC(C)(C)C(=O)N[C@H](C(=O)N[C@@H](C)C(=O)N[C@@H](CC(N)=O)C(N)=O)[C@@H](C)CC)C(C)C)C(=O)O [Peptide 67] (H-H[Aib]QGS[αMeF]TSDVSK[Dip]LDSK([PEG2-PEG2-γGlu-Palmitoyl])AAQD[αMeF]VQ[Aib]IAN-NH2; N-terminus assumed)
1.55	39.4	30.9	CCCCCCCCCCCCCCCCCC(=O)N[C@@H](CCC(=O)N[C@@H](CCC(=O)NCCOCCOCCOCCOCCC(=O)NCCCC[C@H](NC(=O)[C@H](CO)NC(=O)[C@H](CC(=O)O)NC(=O)[C@H](CC(C)C)NC(=O)[C@](C)(Cc1ccccc1)NC(=O)[C@H](CCCCN)NC(=O)[C@H](CO)NC(=O)[C@@H](NC(=O)[C@H](CC(=O)O)NC(=O)[C@H](CO)NC(=O)[C@@H](NC(=O)[C@](C)(Cc1ccccc1)NC(=O)[C@H](CO)NC(=O)CNC(=O)[C@H](CCC(N)=O)NC(=O)C(C)(C)NC(=O)[C@@H](N)Cc1c[nH]cn1)[C@@H](C)O)C(C)C)C(=O)N[C@@H](CCCNC(=N)N)C(=O)N[C@@H](C)C(=O)N[C@@H](CCC(N)=O)C(=O)N[C@@H](CC(=O)O)C(=O)N[C@@](C)(Cc1ccccc1)C(=O)N[C@H](C(=O)N[C@@H](CCC(=O)O)C(=O)NC(C)(C)C(=O)N[C@@H](CC(C)C)C(=O)N[C@@H](CCC(=O)O)C(=O)N[C@@H](C)C(=O)NCC(=O)NCC(N)=O)C(C)C)C(=O)O)C(=O)O [Peptide 70] (H-H[Aib]QGS[αMeF]TSDVSK[αMeF]LDSK([PEG4-γGlu-γGlu-Stearoyl])RAQD[αMeF]VE[Aib]LEAGG-NH2)
3.42	42.6	73.7	CCCCCCCCCCCCCCCC(=O)N[C@@H](CCC(=O)N[C@@H](CCC(=O)NCCOCCOCCOCCOCCC(=O)NCCCC[C@H](NC(=O)[C@H](CO)NC(=O)[C@H](CC(=O)O)NC(=O)[C@H](CC(C)C)NC(=O)[C@](C)(Cc1ccccc1)NC(=O)[C@H](CCCCN)NC(=O)[C@H](CO)NC(=O)[C@@H](NC(=O)[C@H](CC(=O)O)NC(=O)[C@H](CO)NC(=O)[C@@H](NC(=O)[C@](C)(Cc1ccccc1)NC(=O)[C@H](CO)NC(=O)CNC(=O)[C@H](CCC(N)=O)NC(=O)C(C)(C)NC(=O)[C@@H](N)Cc1c[nH]cn1)[C@@H](C)O)C(C)C)C(=O)N[C@@H](C)C(=O)N[C@@H](C)C(=O)N[C@@H](CCC(N)=O)C(=O)N[C@@H](CC(=O)O)C(=O)N[C@@](C)(Cc1ccccc1)C(=O)N[C@H](C(=O)N[C@@H](CCC(=O)O)C(=O)NC(C)(C)C(=O)N[C@@H](CC(C)C)C(=O)N[C@@H](CCC(=O)O)C(=O)N[C@@H](C)C(=O)NCC(=O)NCC(N)=O)C(C)C)C(=O)O)C(=O)O [Peptide 72] (H-H[Aib]QGS[αMeF]TSDVSK[αMeF]LDSK([PEG4-γGlu-γGlu-Palmitoyl])AAQD[αMeF]VE[Aib]LEAGG-NH2)

From patent US20250353891A1 (MEDIMMUNE LIMITED, priority 2022, published 2025)
